# Test results: patent US20260242419A1, “A CYCLIC PEPTIDE FOR TRAPPING INTERLEUKIN-1 BETA” (Merck Sharp & Dohme LLC, priority 2023, published 2026)
# Starred links: 1 amine or outer side, 2 acyl side, 3 side chain; linkers in the order of their positions; H or OH if unused. Non-standard residues stand in square brackets, D forms with d. Residues, ends and D or L forms follow the SMILES beside them. dPro(4R-(4-pyridylmethyl)) = O=C(O)[C@H]1C[C@@H](Cc2ccncc2)CN1; Trp(βS-Me,4-F) = C[C@@H](c1c[nH]c2cccc(F)c12)[C@H](N)C(=O)O; 3Aminoazetidine3carboxyl = O=C(C1(N[*:1])CN([*:3])C1)[*:2]; Bip(4'-COOH) = N[C@@H](Cc1ccc(-c2ccc(C(=O)O)cc2)cc1)C(=O)O; Ala(1-bicyclo(1.1.1)pentyl) = N[C@@H](CC12CC(C1)C2)C(=O)O; X21 = O=C(O)c1ccc(-c2ccc(C[C@H](N[*:1])C(=O)[*:2])cn2)cc1; dPro(4R-Bzl(4-F)) = O=C(O)[C@H]1C[C@@H](Cc2ccc(F)cc2)CN1; Ala(morpholin-4-yl) = N[C@@H](CN1CCOCC1)C(=O)O; Ala(pyrimidin-5-yl) = N[C@@H](Cc1cncnc1)C(=O)O; Phe(4-COOH) = N[C@@H](Cc1ccc(C(=O)O)cc1)C(=O)O; Pro(cis-4-F) = O=C(O)[C@@H]1C[C@H](F)CN1; 4Pal = N[C@@H](Cc1ccncc1)C(=O)O; d(αMeS) = C[C@@](N)(CO)C(=O)O; αMeS = C[C@](N)(CO)C(=O)O; Dab = NCC[C@H](N)C(=O)O; Aib = CC(C)(N)C(=O)O
# Target: T1, IL-1β (Homo sapiens, UniProt P01584)
# T1 construct: purchased BioLegend 579404
# Experiment: IL-6 assay in MRC5 cells: inhibition of IL-1β induced IL-6 secretion (AlphaLISA)
# Assay type: cell-based
# Settings: not given
# Procedure: Procedure for IL-6 Assay in MRC5 Cells
# The inhibition of IL-1β induced IL-6 secretion was evaluated in MRC5 cells. Recombinant human IL-1β (BioLegend 579404) at 2λ EC80 concentration was prepared in seeding medium. EMEM (ATCC 30-2003) with 0.025% BSA (Sigma A9576), 1×penicillin/streptomycin (Gibco 15070-063), 1×NEAA (Gibco 11140-050), 1×GlutaMax (Gibco 35050-061), and 1×sodium pyruvate (Gibco 11360-070), 20 μL of IL-1β was added to a 384-well collagen-coated plate (Corning 354664) and pre-incubated at ambient temperature for 1 hour with 200 nL of compound dispensed using an ECHO 555 liquid handler. Human lung fibroblast MRC5 cells (ATCC CCL-171) were added at a density of 3000 cells/20 μL per well. The cells were prepared by passaging three times in growth medium, EMEM (ATCC 30-2003) with 10% fetal bovine serum (Gibco 16140-071), 1×penicillin/streptomycin (Gibco 15070-063), 1×NEAA (Gibco 11140-050), 1×GlutaMax (Gibco 35050-061), and 1×sodium pyruvate (Gibco 11360-070) in collagen-coated T175 flasks (Greiner 661950) and harvested in seeding medium after 5 minutes of 0.25% trypsin-EDTA (Gibco 25200-056) digestion. The 384-well collagen-coated plate, containing a final volume of 40 μL, was incubated at 37° C., 5% CO2 overnight. 5 μL of the conditioned medium was transferred to a 384-well AlphaLISA plate (PerkinElmer 6005350) for detection of IL-6 using the human AlphaLISA IL-6 kit (PerkinElmer AL223F) as per the manufacturer's protocol. 20 μL of the acceptor bead/biotinylated antibody mix was added to the 384-well AlphaLISA plate and incubated for 1 hour at ambient temperature. The donor bead mix was protected from light and 25 μL was added to the plate and incubated for 30 minutes at ambient temperature. The AlphaLISA plate was read on an EnVision multimode plate reader (Perkin Elmer model 2104) using the AlphaScreen setting (laser exc at 680 nm and emis at […]). Dose response curves and IC50 values were analyzed using a 4-parameter logistic equation in Spotfire software (Tibco, Palo Alto, CA).
# T1 sequence (P01584 117-269): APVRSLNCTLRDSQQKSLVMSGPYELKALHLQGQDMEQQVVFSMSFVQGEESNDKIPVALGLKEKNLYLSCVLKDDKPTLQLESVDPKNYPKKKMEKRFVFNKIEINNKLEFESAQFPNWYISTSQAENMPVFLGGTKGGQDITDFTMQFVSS
row,Compound,IC50
1,"C[C@@H](c1c[nH]c2cccc(F)c12)[C@@H]1NC(=O)[C@@H]2C[C@H](F)CN2C(=O)CNC(=O)[C@H](Cc2ccc(C(=O)O)cc2)NC(=O)[C@H](Cc2ccncc2)NC(=O)[C@H](Cc2ccc(-c3ccc(C(=O)O)cc3)cc2)NC(=O)[C@H]2C[C@@H](Cc3ccc(F)cc3)CN2C(=O)CNC(=O)[C@H](CCN)NC(=O)[C@H](CCC(N)=O)NC(=O)[C@H](Cc2cncnc2)NC(=O)C(C)(C)NC(=O)[C@H](Cc2c[nH]c3ccccc23)NC(=O)[C@H](CCC(=O)O)NC(=O)[C@](C)(CO)NC1=O [Example 22] (cyclo([4Pal][Phe(4-COOH)]G[Pro(cis-4-F)][Trp(βS-Me,4-F)][αMeS]EW[Aib][Ala(pyrimidin-5-yl)]Q[Dab]G[dPro(4R-Bzl(4-F))][Bip(4'-COOH)]))",27 pM

# Same assay, conditions: inhibition of IL-1β induced IL-6 secretion in MRC5 cells; read-out: MRC5 IC50
row,Compound,IC50
1,"C[C@@H](c1c[nH]c2cccc(F)c12)[C@@H]1NC(=O)[C@@H]2C[C@H](F)CN2C(=O)CNC(=O)[C@H](Cc2ccc(C(=O)O)cc2)NC(=O)[C@H](CC23CC(C2)C3)NC(=O)[C@H](Cc2ccc(-c3ccc(C(=O)O)cc3)cc2)NC(=O)[C@H]2C[C@@H](Cc3ccc(F)cc3)CN2C(=O)CNC(=O)[C@H](CCN)NC(=O)[C@H](CCC(N)=O)NC(=O)[C@H](Cc2cncnc2)NC(=O)C(C)(C)NC(=O)[C@H](Cc2c[nH]c3ccccc23)NC(=O)[C@H](CCC(=O)O)NC(=O)C(C)(C)NC1=O [Example 13] (cyclo([Bip(4'-COOH)][Ala(1-bicyclo(1.1.1)pentyl)][Phe(4-COOH)]G[Pro(cis-4-F)][Trp(βS-Me,4-F)][Aib]EW[Aib][Ala(pyrimidin-5-yl)]Q[Dab]G[dPro(4R-Bzl(4-F))]))",22 pM
2,"C[C@@H](c1c[nH]c2cccc(F)c12)[C@@H]1NC(=O)[C@@H]2C[C@H](F)CN2C(=O)CNC(=O)[C@H](Cc2ccc(C(=O)O)cc2)NC(=O)[C@H](Cc2ccncc2)NC(=O)[C@H](Cc2ccc(-c3ccc(C(=O)O)cc3)cc2)NC(=O)[C@H]2C[C@@H](Cc3ccncc3)CN2C(=O)CNC(=O)[C@H](CCN)NC(=O)[C@H](CCC(N)=O)NC(=O)[C@H](Cc2cncnc2)NC(=O)C(C)(C)NC(=O)[C@H](Cc2c[nH]c3ccccc23)NC(=O)[C@H](CCC(=O)O)NC(=O)C(C)(C)NC1=O [Example 14] (cyclo([Bip(4'-COOH)][4Pal][Phe(4-COOH)]G[Pro(cis-4-F)][Trp(βS-Me,4-F)][Aib]EW[Aib][Ala(pyrimidin-5-yl)]Q[Dab]G[dPro(4R-(4-pyridylmethyl))]))",35 pM
3,"C[C@@H](c1c[nH]c2cccc(F)c12)[C@@H]1NC(=O)[C@@H]2C[C@H](F)CN2C(=O)CNC(=O)[C@H](Cc2ccc(C(=O)O)cc2)NC(=O)[C@H](Cc2ccncc2)NC(=O)[C@H](Cc2ccc(-c3ccc(C(=O)O)cc3)cc2)NC(=O)[C@H]2C[C@@H](Cc3ccncc3)CN2C(=O)CNC(=O)[C@H](CCN)NC(=O)[C@H](CCC(N)=O)NC(=O)[C@H](Cc2ccncc2)NC(=O)C(C)(C)NC(=O)[C@H](Cc2c[nH]c3ccccc23)NC(=O)[C@H](CCC(=O)O)NC(=O)C(C)(C)NC1=O [Example 15] (cyclo([Bip(4'-COOH)][4Pal][Phe(4-COOH)]G[Pro(cis-4-F)][Trp(βS-Me,4-F)][Aib]EW[Aib][4Pal]Q[Dab]G[dPro(4R-(4-pyridylmethyl))]))",35 pM
4,"C[C@@H](c1c[nH]c2cccc(F)c12)[C@@H]1NC(=O)[C@@H]2C[C@H](F)CN2C(=O)CNC(=O)[C@H](Cc2ccc(C(=O)O)cc2)NC(=O)[C@H](Cc2ccncc2)NC(=O)[C@H](Cc2ccc(-c3ccc(C(=O)O)cc3)cc2)NC(=O)[C@H]2C[C@@H](Cc3ccc(F)cc3)CN2C(=O)CNC(=O)[C@H](CCN)NC(=O)[C@H](CCC(N)=O)NC(=O)[C@H](Cc2cncnc2)NC(=O)C(C)(C)NC(=O)[C@H](Cc2c[nH]c3ccccc23)NC(=O)[C@H](CC(=O)O)NC(=O)C(C)(C)NC1=O [Example 17] (cyclo([Bip(4'-COOH)][4Pal][Phe(4-COOH)]G[Pro(cis-4-F)][Trp(βS-Me,4-F)][Aib]DW[Aib][Ala(pyrimidin-5-yl)]Q[Dab]G[dPro(4R-Bzl(4-F))]))",29 pM
5,"C[C@@H](c1c[nH]c2cccc(F)c12)[C@@H]1NC(=O)[C@@H]2C[C@H](F)CN2C(=O)CNC(=O)[C@H](Cc2ccc(C(=O)O)cc2)NC(=O)[C@H](Cc2ccncc2)NC(=O)[C@H](Cc2ccc(-c3ccc(C(=O)O)cc3)cc2)NC(=O)[C@H]2C[C@@H](Cc3ccc(F)cc3)CN2C(=O)CNC(=O)[C@H](CCN)NC(=O)[C@H](CCC(N)=O)NC(=O)[C@H](Cc2cncnc2)NC(=O)[C@](C)(CO)NC(=O)[C@H](Cc2c[nH]c3ccccc23)NC(=O)[C@H](CCC(=O)O)NC(=O)C(C)(C)NC1=O [Example 18] (cyclo([Bip(4'-COOH)][4Pal][Phe(4-COOH)]G[Pro(cis-4-F)][Trp(βS-Me,4-F)][Aib]EW[αMeS][Ala(pyrimidin-5-yl)]Q[Dab]G[dPro(4R-Bzl(4-F))]))",27 pM
6,"C[C@@H](c1c[nH]c2cccc(F)c12)[C@@H]1NC(=O)[C@@H]2C[C@H](F)CN2C(=O)CNC(=O)[C@H](Cc2ccc(C(=O)O)cc2)NC(=O)[C@H](Cc2ccncc2)NC(=O)[C@H](Cc2ccc(-c3ccc(C(=O)O)cc3)cc2)NC(=O)[C@H]2C[C@@H](Cc3ccc(F)cc3)CN2C(=O)CNC(=O)[C@H](CCN)NC(=O)[C@H](CCC(N)=O)NC(=O)[C@H](Cc2cncnc2)NC(=O)C(C)(C)NC(=O)[C@H](Cc2c[nH]c3ccccc23)NC(=O)[C@H](CCC(=O)O)NC(=O)[C@@](C)(CO)NC1=O [Example 19] (cyclo([Bip(4'-COOH)][4Pal][Phe(4-COOH)]G[Pro(cis-4-F)][Trp(βS-Me,4-F)][d(αMeS)]EW[Aib][Ala(pyrimidin-5-yl)]Q[Dab]G[dPro(4R-Bzl(4-F))]))",21 pM
7,"C[C@@H](c1c[nH]c2cccc(F)c12)[C@@H]1NC(=O)[C@@H]2C[C@H](F)CN2C(=O)CNC(=O)[C@H](Cc2ccc(C(=O)O)cc2)NC(=O)[C@H](Cc2ccncc2)NC(=O)[C@H](Cc2ccc(-c3ccc(C(=O)O)cc3)cc2)NC(=O)[C@H]2C[C@@H](Cc3ccc(F)cc3)CN2C(=O)CNC(=O)[C@H](CCN)NC(=O)[C@H](CCC(N)=O)NC(=O)[C@H](Cc2cncnc2)NC(=O)C2(CNC2)NC(=O)[C@H](Cc2c[nH]c3ccccc23)NC(=O)[C@H](CCC(=O)O)NC(=O)C(C)(C)NC1=O [Example 21] (cyclo([Bip(4'-COOH)][4Pal][Phe(4-COOH)]G[Pro(cis-4-F)][Trp(βS-Me,4-F)][Aib]EW[3Aminoazetidine3carboxyl][Ala(pyrimidin-5-yl)]Q[Dab]G[dPro(4R-Bzl(4-F))]))",40 pM
8,"C[C@@H](c1c[nH]c2cccc(F)c12)[C@@H]1NC(=O)[C@@H]2C[C@H](F)CN2C(=O)CNC(=O)[C@H](Cc2ccc(C(=O)O)cc2)NC(=O)[C@H](Cc2ccncc2)NC(=O)[C@H](Cc2ccc(-c3ccc(C(=O)O)cc3)cc2)NC(=O)[C@H]2C[C@@H](Cc3ccc(F)cc3)CN2C(=O)CNC(=O)[C@H](CCN)NC(=O)[C@H](CCC(N)=O)NC(=O)[C@H](Cc2cncnc2)NC(=O)[C@@](C)(CO)NC(=O)[C@H](Cc2c[nH]c3ccccc23)NC(=O)[C@H](CCC(=O)O)NC(=O)C(C)(C)NC1=O [Example 23] (cyclo([Bip(4'-COOH)][4Pal][Phe(4-COOH)]G[Pro(cis-4-F)][Trp(βS-Me,4-F)][Aib]EW[d(αMeS)][Ala(pyrimidin-5-yl)]Q[Dab]G[dPro(4R-Bzl(4-F))]))",18 pM
9,"C[C@@H](c1c[nH]c2cccc(F)c12)[C@@H]1NC(=O)[C@@H]2C[C@H](F)CN2C(=O)CNC(=O)[C@H](Cc2ccc(C(=O)O)cc2)NC(=O)[C@H](Cc2ccncc2)NC(=O)[C@H](Cc2ccc(-c3ccc(C(=O)O)cc3)cc2)NC(=O)[C@H]2C[C@@H](Cc3ccc(F)cc3)CN2C(=O)CNC(=O)[C@H](CN2CCOCC2)NC(=O)[C@H](CCC(N)=O)NC(=O)[C@H](Cc2cncnc2)NC(=O)C(C)(C)NC(=O)[C@H](Cc2c[nH]c3ccccc23)NC(=O)[C@H](CCC(=O)O)NC(=O)C(C)(C)NC1=O [Example 24] (cyclo([Bip(4'-COOH)][4Pal][Phe(4-COOH)]G[Pro(cis-4-F)][Trp(βS-Me,4-F)][Aib]EW[Aib][Ala(pyrimidin-5-yl)]Q[Ala(morpholin-4-yl)]G[dPro(4R-Bzl(4-F))]))",49 pM
10,"C[C@@H](c1c[nH]c2cccc(F)c12)[C@@H]1NC(=O)[C@@H]2C[C@H](F)CN2C(=O)CNC(=O)[C@H](Cc2ccc(C(=O)O)cc2)NC(=O)[C@H](Cc2ccncc2)NC(=O)[C@H](Cc2ccc(-c3ccc(C(=O)O)cc3)nc2)NC(=O)[C@H]2C[C@@H](Cc3ccc(F)cc3)CN2C(=O)CNC(=O)[C@H](CCN)NC(=O)[C@H](CCC(N)=O)NC(=O)[C@H](Cc2cncnc2)NC(=O)C(C)(C)NC(=O)[C@H](Cc2c[nH]c3ccccc23)NC(=O)[C@H](CCC(=O)O)NC(=O)C(C)(C)NC1=O [Example 26] (cyclo([X21][4Pal][Phe(4-COOH)]G[Pro(cis-4-F)][Trp(βS-Me,4-F)][Aib]EW[Aib][Ala(pyrimidin-5-yl)]Q[Dab]G[dPro(4R-Bzl(4-F))]))",35 pM
